Source: article PMC8231118, “Evaluating the Antioxidants, Whitening and Antiaging Properties of Rice Protein Hydrolysates” (Molecules, 2021)
Values after ≈ are worked out from the molar mass of the structure shown.

Target: T1, mushroom tyrosinase
T1 construct: gene PPO3
Experiment: dopachrome absorbance at […] nm
Format: biochemical
Details: L-DOPA substrate (1.25 mM solution), 20 mM phosphate pH 6.8, 37 °C, 30 min

O=C1O[C@H]([C@@H](O)CO)C(O)=C1O [ascorbic acid]
IC50: 98 µg/mL (≈ 556 µM)
